In US20060024708A1, “Porcine sulfotransferase 2A1 polynucleotide sequence, protein, and methods of use for same” (UNIVERSITY OF GUELPH, priority 2004, published 2006):

Columns and labels:
[1] = system: rat SULT2A1 gene; conditions: Makishima et al., 1999; cited from earlier work
[2] = system: HST; conditions: Okuda et al., 1989; Singer et al., 1984; cited from earlier work
[3] = system: sulfotransferase activity towards 5α-androstenone in Leydig cells; experiment: Inhibition studies: production of sulfoconjugated 16-androstene steroids from radiolabelled pregnenolone by purified Leydig cells; assay type: cell-based, boar; conditions: for production of sulfoconjugated 16-androstene steroids from pregnenolone: 8 hours, 0, 5, 10, 50 or 100 μM inhibitor
Procedure: Purified Leydig cells were resuspended (50×10^6 cells/incubation) into a final volume of 25 ml of Williams Media E mixture. Radiolabelled [7-^3H(N)]-pregnenolone (3.4μCi/μmol) was added as a substrate to give a final concentration of 0.4 μmol/incubation. Leydig cells were incubated for a total of 8 hours at 37° C. under 95%:5% CO2 atmosphere at in a Dubnoff shaking waterbath in the presence of 0, 5, 10, 50, or 100 μM of various sulfotransferase inhibitors. 8 hour incubations were used, as this is an optimal time-point for steroid conjugation under these conditions. […] Estrone was used as an EST-inhibitor. The sulfotransferase activity towards 5α-androstenone was determined by HPLC analysis of extracted 5 ml media aliquots.
Prior to analysis, conjugated steroids were separated from unconjugated steroids with the use of Sep-Pak C18 solid-phase chromatography cartridges as described previously (Raeside et al., 1997). After separation, the conjugate fraction was hydrolyzed overnight in trifluroacetic acid/ethyl acetate (1/100 v/v) at 45° C. in order to liberate the sulfoconjugated steroids (Raeside et al., 1999b). The solvolyzed steroids were then re-extracted by solid-phase chromatography. Enzyme hydrolysis was performed on the remaining conjugated material present after solvolysis with 1250 units of β-glucuronidase (type B-1, from bovine liver), and incubated overnight at 37° C.
The unconjugated and hydrolyzed steroids from the inhibition studies were analyzed by HPLC using the same protocol as stated above; however; radiolabelled steroids were measured on-line with a Canberra-Packard 500TR flow scintillation analyzer.

[4] = system: Leydig cells; experiment: Viability of isolated Leydig cells (trypan blue exclusion test); assay type: cell-based, boar; conditions: 100 μM, 8 h of exposure
Procedure: After the slaughter of group A boars, bulbourethral glands were removed and measured for length. A backfat sample was removed from the midline on the point of the 11th rib and frozen at −20° C. until assayed for 5α-androstenone. Testes samples were obtained from five randomly selected animals immediately after slaughter. Testes were transported to the laboratory within five minutes of their removal from the boar. One testis was dissected free from the epididymis, cut longitudinally, and decapsulated. The tissue was sliced and 100 g of tissue was incubated for 12 min in a shaking water bath at 37° C. with 1 mg/mL collagenase (type 1A), 50 μg/mL trypsin inhibitor, and 50 μg/mL DNase in 250 mL of Williams Media E containing 1 g/L bovine serum albumin and 0.1 g/L L-glutamine. Purified Leydig cells were obtained by layering the collagenase dispersed cells onto discontinuous Percoll gradients (Raeside and Renaud, 1983). Cell viability was determined with a trypan blue exclusion test. The typical viability of the isolated Leydig cells was 90%.
Purified Leydig cells were resuspended (50×10^6 cells/incubation) into a final volume of 25 ml of Williams Media E mixture. […] The sulfotransferase activity towards 5α-androstenone was determined by HPLC analysis of extracted 5 ml media aliquots.

Row | SMILES | induction of the rat SULT2A1 gene [1] | inhibition of HST [2] | production of sulfoconjugated 16-androstene steroids from pregnenolone ([3]; Leydig cells) | viability of the Leydig cells [4] | production of the unconjugated forms of the 16-androstene steroids ([3]; Leydig cells treated with inhibitor, 8 hours) | production of sulfoconjugated 16-androstene steroids at the 100 μM level ([3]; Leydig cells, 8 hours, 100 μM inhibitor)
1 | C[C@H](CCC(=O)O)[C@H]1CC[C@H]2[C@@H]3[C@H](O)C[C@@H]4C[C@H](O)CC[C@]4(C)[C@H]3CC[C@]12C [Chenodeoxycholic acid] | strong inducer |  |  |  |  | 
2 | Oc1c(Cl)c(Cl)c(Cl)c(Cl)c1Cl [PCP, Pentachlorophenol] |  | does not inhibit | no effect | less than 50% |  | 
3 | CCN(CC)CC [Triethylamine] |  |  | decreased production | 85% | increased production | near zero levels
